Data: the NIST ThermoML archive (doi:10.1021/acs.jced.5b00114)
Where “and” joins values, the source holds several entries; their conditions need not be identical. Equal values may be shown once. Numbers after ± are expanded uncertainties.

Test: mn = molality of the nth substance listed, in mol/kg
Settings: 101 kPa, Liquid; for viscosity: Capillary tube (Ostwald / Ubbelohde) method; for mass density: Vibrating tube method

Cc1ncc(CO)c(CO)c1O.Cl [5-hydroxy-6-methyl-3,4-pyridinedimethanol hydrochloride] + O
Settings	mass density, 293.15 K	mass density, 303.15 K [kg/m3]	mass density, 313.15 K	mass density, 323.15 K [kg/m3]	viscosity, 293.15 K [mPa·s]	viscosity, 303.15 K	viscosity, 313.15 K	viscosity, 323.15 K [mPa·s]
m1 = 0.0999	1004.23 ± 1 kg/m3	1001.56 ± 1	998.03 ± 1 kg/m3	993.8 ± 1	1.044 ± 0.022	0.829 ± 0.018 mPa·s	0.678 ± 0.014 mPa·s	0.568 ± 0.012
m1 = 0.1	1004.23 ± 1 kg/m3	1001.57 ± 1	998.04 ± 1 kg/m3	993.81 ± 1	1.044 ± 0.022	0.83 ± 0.017 mPa·s	0.679 ± 0.014 mPa·s	0.568 ± 0.012
m1 = 0.1008	1004.28 ± 1 kg/m3	1001.61 ± 1	998.1 ± 1 kg/m3	993.86 ± 1	1.044 ± 0.022	0.83 ± 0.018 mPa·s	0.679 ± 0.014 mPa·s	0.568 ± 0.012
m1 = 0.1992	1010 ± 1 kg/m3	1007.23 ± 1	1003.65 ± 1 kg/m3	999.27 ± 1	1.084 ± 0.023	0.861 ± 0.018 mPa·s	0.703 ± 0.015 mPa·s	0.587 ± 0.012
m1 = 0.2016	1010.1 ± 1 kg/m3 and 1010.09 ± 1 kg/m3	1007.34 ± 1	1003.75 ± 1 kg/m3 and 1003.74 ± 1 kg/m3	999.43 ± 1	1.085 ± 0.023	0.861 ± 0.018 mPa·s	0.704 ± 0.015 mPa·s and 0.703 ± 0.015 mPa·s	0.587 ± 0.012
m1 = 0.2025	1010.19 ± 1 kg/m3	1007.42 ± 1	1003.85 ± 1 kg/m3	999.49 ± 1	1.085 ± 0.023	0.862 ± 0.018 mPa·s	0.704 ± 0.015 mPa·s	0.589 ± 0.013
m1 = 0.3	1015.66 ± 1 kg/m3 and 1015.67 ± 1 kg/m3	1012.81 ± 1	1009.15 ± 1 kg/m3	1004.74 ± 1	1.127 ± 0.024	0.894 ± 0.019 mPa·s and 0.893 ± 0.019 mPa·s	0.729 ± 0.015 mPa·s	0.608 ± 0.013
m1 = 0.3014	1015.74 ± 1 kg/m3	1012.88 ± 1	1009.21 ± 1 kg/m3	1004.83 ± 1	1.127 ± 0.024	0.894 ± 0.019 mPa·s	0.729 ± 0.015 mPa·s	0.609 ± 0.013
m1 = 0.3999	1021.12 ± 1 kg/m3 and 1021.11 ± 1 kg/m3	1018.15 ± 1	1014.45 ± 1 kg/m3	1010.01 ± 1	1.169 ± 0.025	0.926 ± 0.019 mPa·s	0.755 ± 0.016 mPa·s	0.629 ± 0.013
m1 = 0.4001	1021.16 ± 1 kg/m3	1018.19 ± 1	1014.46 ± 1 kg/m3	1010.02 ± 1	1.172 ± 0.025	0.926 ± 0.02 mPa·s	0.755 ± 0.016 mPa·s	0.629 ± 0.013
